Molecules are shown by their SMILES.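 Tested at 5 concentrations; 48 h exposure; 96-well plates; endpoints linearly interpolated, else capped at highest concentration. GI50 marks 50% less growth. TGI denotes the concentration required for complete inhibition of growth.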

We go through 28 compounds from PubChem BioAssay (NCI).

Among the test systems are U251 CNS; HCC-2998 colon; HCT-116 colon; COLO 205 colon; LOX IMVI melanoma; CCRF-CEM leukemia; K-562 leukemia.
Assay in all cases: growth of human tumour cells (NCI), 48 h

For the compound `COc1ccccc1NC(=O)CC(=O)N1N=C(C)C(N=Nc2ccc(S(N)(=O)=O)cc2)C1=O` (stereo unspecified), the TGI with U251 CNS, in the assay with HCC-2998 colon, in the assay on HCT-116 colon, in the assay with COLO 205 colon and in the assay on LOX IMVI melanoma was > 100 µM in each case.

As to `Cc1ccncc1.[O]=[Ge].[O]=[Ge].[O]=[Ge].[O]=[Ge].[O]=[Ge].[O]=[Ge][OH].[O]=[Ge][OH]`, the GI50 in the assay on HCC-2998 colon, in the assay on HCT-116 colon, in the assay with LOX IMVI melanoma, in the assay with CCRF-CEM leukemia and with K-562 leukemia was > 100 µM throughout. Also, the TGI in the assay with HCC-2998 colon, with HCT-116 colon, with LOX IMVI melanoma, in the assay on CCRF-CEM leukemia and with K-562 leukemia was > 100 µM throughout.

For `C[N+](C)(C)CC(=O)N/N=C(/Cc1nc2c3c(ccc2[nH]c1=O)C(=O)c1ccccc1C3=O)C(=O)Nc1ccc(Cl)c(Cl)c1`, the TGI in the assay with HCC-2998 colon, in the assay with HCT-116 colon, with COLO 205 colon, with CCRF-CEM leukemia and in the assay with K-562 leukemia was > 100 µM in each case.

Consider `CCOC(=O)C1=C(C)N(Cc2ccccc2)C(C)=C(C(=O)OCC)C1c1ccccc1O`, for which the TGI is > 100 µM in the assay with U251 CNS; > 100 µM in the assay with HCC-2998 colon; > 100 µM with HCT-116 colon; 31.4 µM in the assay with COLO 205 colon; 39.7 µM in the assay on LOX IMVI melanoma; 69.5 µM with CCRF-CEM leukemia. Moreover, the TGI in the assay with K-562 leukemia was > 100 µM.

`Cc1cc(N(CCC#N)S(=O)(=O)c2ccccc2)ccc1/C=C1N=C(/C=C/c2ccccc2)OC\1=O`: the TGI in the assay with U251 CNS, with HCC-2998 colon, with HCT-116 colon, with COLO 205 colon, in the assay with LOX IMVI melanoma and in the assay on CCRF-CEM leukemia was > 100 µM in each case. Besides, the TGI in the assay on K-562 leukemia is > 100 µM.

`CCCCCCCCCCCCOC(=S)NCCCC`: the TGI was determined as 37.2 µM in the assay with U251 CNS; 34 µM with HCC-2998 colon; 35 µM in the assay on HCT-116 colon; 32 µM in the assay on LOX IMVI melanoma; 80.4 µM with CCRF-CEM leukemia; 41.3 µM in the assay on K-562 leukemia.

Turning to `CCCc1[nH]nc(CCC(=O)N(Cc2ccccc2)Cc2ccccc2)c1CC`, the TGI with HCC-2998 colon, in the assay with COLO 205 colon, with LOX IMVI melanoma, with CCRF-CEM leukemia and in the assay with K-562 leukemia was > 100 µM throughout.

With `COCCN1C2=CCCCC2=Nc2c1nc(N)[nH]c2=O`, the TGI with U251 CNS, in the assay on HCC-2998 colon, with HCT-116 colon, with COLO 205 colon, in the assay with LOX IMVI melanoma and with CCRF-CEM leukemia was > 100 µM in each case. The TGI in the assay on K-562 leukemia is > 100 µM.

Take `c1cc(-c2cn3ccsc3n2)ccn1`: the TGI in the assay with U251 CNS is > 100 µM; in the assay on HCC-2998 colon, > 100 µM; with HCT-116 colon, > 100 µM; in the assay on COLO 205 colon, > 100 µM; with LOX IMVI melanoma, > 100 µM; in the assay with CCRF-CEM leukemia, > 60.5 µM. In the assay with K-562 leukemia, the TGI is > 70.3 µM.

As to `Cc1ccc(C(=O)O/N=C2/CCC/C2=C\c2ccccc2)cc1`, the TGI in the assay on U251 CNS, with HCC-2998 colon, in the assay with HCT-116 colon, in the assay on COLO 205 colon, with LOX IMVI melanoma and in the assay on CCRF-CEM leukemia was > 100 µM each time. Further, the TGI in the assay with K-562 leukemia is > 100 µM.

With `N#CC(C(=O)/C(=N/NC(=O)c1ccccc1O)C(C#N)c1ccc(Cl)cc1)c1ccc(Cl)cc1` (stereo unspecified), the TGI in the assay with U251 CNS is 22.5 µM; with HCT-116 colon it was 40.2 µM; in the assay with COLO 205 colon, 86.5 µM; in the assay with LOX IMVI melanoma it was 27.3 µM; with CCRF-CEM leukemia, > 100 µM; in the assay on K-562 leukemia it was 79.1 µM.

For the compound `NC(=S)N/N=C(/CC(=O)c1ccccc1)C(=O)Nc1ccc(Cl)c(Cl)c1`, the TGI was > 100 µM with U251 CNS; > 100 µM with HCC-2998 colon; > 100 µM in the assay on HCT-116 colon; > 100 µM in the assay on COLO 205 colon; > 100 µM in the assay with LOX IMVI melanoma; 91.6 µM in the assay with CCRF-CEM leukemia. In addition, the TGI with K-562 leukemia was > 100 µM.

On to `CC(C)C(=O)Nc1nc2nc[nH]c2c(=O)[nH]1`, for which the TGI in the assay with U251 CNS, with HCC-2998 colon, in the assay on HCT-116 colon, with COLO 205 colon, in the assay on LOX IMVI melanoma and in the assay on CCRF-CEM leukemia was > 100 µM each time. In addition, the TGI with K-562 leukemia was > 100 µM.

As for `O=c1c2c([nH]c3cc4c(cc13)OCO4)-c1ccccc1CC2`, the TGI in the assay with U251 CNS, in the assay with HCC-2998 colon, in the assay on HCT-116 colon, in the assay with COLO 205 colon, in the assay with LOX IMVI melanoma and in the assay on CCRF-CEM leukemia was > 100 µM in each case. In addition, the TGI in the assay on K-562 leukemia was > 100 µM.

`COc1ccc2c(c1)C(O)(C(F)(F)F)c1cc(C(=O)C(F)(F)F)c3ccccc3c1N2` (stereo unspecified): the TGI in the assay with HCC-2998 colon came to 24.3 µM; in the assay with COLO 205 colon, 19.5 µM; with LOX IMVI melanoma, 16.5 µM; in the assay on CCRF-CEM leukemia it was 29.2 µM; with K-562 leukemia, 15.7 µM.

Turning to `Cc1ccc(-c2c(N)[n+]([O-])c3ccccc3[n+]2[O-])cc1`, the TGI in the assay with U251 CNS was 27.8 µM; with HCC-2998 colon, 30.1 µM; in the assay with COLO 205 colon, 34.7 µM; in the assay on LOX IMVI melanoma, 25.4 µM; with CCRF-CEM leukemia, > 100 µM; in the assay with K-562 leukemia it was > 100 µM.

As for `CC1=NCCc2c1[nH]c1cc(O)ccc21`, the TGI in the assay on HCC-2998 colon, with HCT-116 colon, in the assay with COLO 205 colon, in the assay on LOX IMVI melanoma, with CCRF-CEM leukemia and in the assay with K-562 leukemia was > 100 µM each time.

Regarding `COc1cc2c(cc1OC)C(N(C)C)C(c1ccccc1)=C2Cl` (stereo unspecified), the TGI was 30.3 µM in the assay with U251 CNS; 32.6 µM in the assay with COLO 205 colon; 31.9 µM in the assay on LOX IMVI melanoma; > 100 µM with CCRF-CEM leukemia; > 100 µM with K-562 leukemia.

With `COC(=O)c1csnn1`, the TGI in the assay with U251 CNS, in the assay with HCC-2998 colon, with HCT-116 colon, with COLO 205 colon, in the assay on LOX IMVI melanoma and in the assay on CCRF-CEM leukemia was > 100 µM throughout. For the same compound, the TGI in the assay on K-562 leukemia was > 100 µM.

Consider `C=CCC1([C@H](C)[C@@H](OC(C)=O)c2cc(OC)c(OC)c(OC)c2)C[C@@H](OC)CCC1=O` (stereo partly specified), for which the TGI is 26.7 µM in the assay on U251 CNS; 32.3 µM with HCT-116 colon; 42.2 µM in the assay on COLO 205 colon; 51.7 µM in the assay with CCRF-CEM leukemia; > 100 µM with K-562 leukemia.

For `CC(C)(C)OC(=O)C#CC[C@H]1CCCC1/C=C/C(O)=C1/C(=O)NC(CCCNC(=O)OC(C)(C)C)C1=O` (stereo partly specified), the TGI in the assay on U251 CNS was 74.8 µM; with HCC-2998 colon, > 100 µM; with HCT-116 colon it was 23.9 µM; with COLO 205 colon, 33.6 µM; in the assay with LOX IMVI melanoma, 40.2 µM; with CCRF-CEM leukemia, 88.5 µM. In the assay with K-562 leukemia, the TGI was 89.3 µM.

`O=Cc1cn(C(=O)c2ccccc2)c2ccccc12`: the TGI in the assay with U251 CNS, with HCC-2998 colon, in the assay with HCT-116 colon, with CCRF-CEM leukemia and in the assay with K-562 leukemia was > 100 µM in each case.

For the compound `CC1CCCCc2nc3c(c(=O)n21)CCCC3` (stereo unspecified), the TGI in the assay on U251 CNS, with HCC-2998 colon, with HCT-116 colon, in the assay on COLO 205 colon, with LOX IMVI melanoma and in the assay on K-562 leukemia was > 100 µM throughout.

In the case of `COc1nc(NC2OCC(OC(C)=O)C(OC(C)=O)C2OC(C)=O)c(N=CC=Nc2c(NC3OCC(OC(C)=O)C(OC(C)=O)C3OC(C)=O)nc(OC)n(C)c2=O)c(=O)n1C` (stereo unspecified), the TGI in the assay on U251 CNS, in the assay with HCC-2998 colon, in the assay on HCT-116 colon, with COLO 205 colon, in the assay on LOX IMVI melanoma and in the assay on K-562 leukemia was > 100 µM each time.

Consider `Cc1cccc(NC(=O)CC(=O)N2N=C(N(CCC#N)c3ccc(Cl)cc3)CC2c2ccccc2)c1` (stereo unspecified), for which the TGI in the assay with U251 CNS, in the assay on HCC-2998 colon, in the assay on HCT-116 colon, in the assay with COLO 205 colon, in the assay with LOX IMVI melanoma and in the assay on CCRF-CEM leukemia was > 100 µM in each case. Also, in the assay with K-562 leukemia, the TGI is > 100 µM.

As to `COc1cccc(NC(=O)CC(=O)N2N=C(N(CCC#N)c3ccc(Cl)cc3)CC2c2ccccc2)c1` (stereo unspecified), the TGI in the assay on U251 CNS, in the assay with HCC-2998 colon, with HCT-116 colon, in the assay with COLO 205 colon, with LOX IMVI melanoma and in the assay on CCRF-CEM leukemia was > 100 µM each time. Besides, the TGI in the assay with K-562 leukemia is > 100 µM.

`CCCCCCCCCc1cc(=O)c2ccc(OCc3ccccc3)cc2o1`: the TGI in the assay on U251 CNS, in the assay on HCC-2998 colon, in the assay with HCT-116 colon, in the assay on COLO 205 colon, with LOX IMVI melanoma and in the assay with CCRF-CEM leukemia was > 100 µM each time. Besides, the TGI in the assay with K-562 leukemia is > 100 µM.

In the case of `O=C(O)c1ccc([Se][Se]c2ccc(C(=O)O)cc2)cc1`, the TGI with U251 CNS was 49.6 µM; in the assay on HCC-2998 colon, > 100 µM; with HCT-116 colon it was 34.5 µM; in the assay with COLO 205 colon, 74 µM.
